# Results reported in patent US6528455B1, “Phenoxy-and thiophenoxy acrylic acid compounds as herbicides” (BASF Aktiengesellschaft, priority 1999, dated 2003).
# System: dicotyledonous harmful plants (ABUTH, AMARE, IPOSS, SOLNI)
# Assay: Greenhouse experiment, post-emergence treatment: herbicidal action
# Assay type: in vivo
# Settings: application rates of 3.9 and 1.95 g/ha of a.s., 2 to 4 weeks
# Excerpt: The test period extended over 2 to 4 weeks.
substance,measurement,value
"3-(4-Chloro-2-fluoro-5-(1-methoxycarbonyl-1-vinyloxy)phenyl)-1-methyl-6-trifluoromethyl-2,4-(1H, 3H)pyrimidinedione [Example 2]",herbicidal effect on dicotyledonous harmful plants compared with Comparative Example A,at least as good a herbicidal effect
